The source of these data is paper PMC7070036, “An amber obligate active site-directed ligand evolution technique for phage display” (Nature Communications, 2020).

Values joined by “and” are separate entries in the source; they are usually repeats but may differ in a detail not shown here. Equal values may be shown once. Non-standard residues stand in square brackets, D forms with d. Residues, ends and D or L forms follow the SMILES beside them. Lys(thiomyristoyl) = CCCCCCCCCCCCCC(=S)NCCCC[C@H](N)C(=O)O A value given as a limit tells only on which side of the number the result lay.

Holding throughout (format): biochemical
For one experiment, the target named is T1, SIRT1 (Homo sapiens, UniProt Q96EB6).
T1 sequence (Q96EB6 1-747): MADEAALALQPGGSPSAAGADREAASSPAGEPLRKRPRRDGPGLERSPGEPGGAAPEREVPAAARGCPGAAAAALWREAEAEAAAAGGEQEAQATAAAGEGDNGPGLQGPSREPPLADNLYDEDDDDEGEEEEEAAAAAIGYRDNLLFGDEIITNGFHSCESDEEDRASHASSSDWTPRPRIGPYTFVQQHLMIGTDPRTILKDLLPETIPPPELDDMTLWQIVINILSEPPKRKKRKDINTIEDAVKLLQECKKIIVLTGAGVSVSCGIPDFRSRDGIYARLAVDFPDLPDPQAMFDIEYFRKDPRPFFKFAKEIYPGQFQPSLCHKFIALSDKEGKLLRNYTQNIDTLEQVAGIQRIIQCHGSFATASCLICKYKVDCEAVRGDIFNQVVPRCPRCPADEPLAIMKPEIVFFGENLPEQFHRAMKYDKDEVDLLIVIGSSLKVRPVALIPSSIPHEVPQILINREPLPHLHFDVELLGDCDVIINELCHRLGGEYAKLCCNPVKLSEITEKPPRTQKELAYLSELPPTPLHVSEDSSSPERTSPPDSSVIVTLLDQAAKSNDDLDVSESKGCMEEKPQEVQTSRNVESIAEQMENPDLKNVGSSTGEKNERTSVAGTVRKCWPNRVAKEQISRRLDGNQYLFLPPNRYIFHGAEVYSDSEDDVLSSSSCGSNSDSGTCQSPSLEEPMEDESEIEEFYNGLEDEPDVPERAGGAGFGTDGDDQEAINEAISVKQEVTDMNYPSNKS
The experiment is described as follows: Continuous fluorogenic sirtuin inhibition assay, SIRT1. As for the experimental part:
(§1) The continuous assay for comparing isoform specificity of S2P04 was performed using the universal fluorogenic sirtuin substrate described by Schuster et al.[41]. Briefly, the inhibition reactions were performed in 50-µL volumes at 37 °C in black, half-area, 96-well plates. The sirtuin enzyme (0.25 µM) was preincubated with different concentrations of the peptide S2P04 (0.0064–50 µM for SIRT1 and SIRT2, 0.5–100 µM for SIRT3) or TB (0.16–150 µM for SIRT1–SIRT3), and 1 mM NAD^+ in assay buffer (20 mM Tris, pH 7.8, 150 mM NaCl, 5 mM MgCl2, and 1 mM DTT) for 15 min. Following incubation, the reaction started with the addition of the fluorogenic substrate (5 µM), and product formation was monitored by measuring the fluorescence intensity every 20 s for 5 min (SIRT2) or 30 min (SIRT1 and SIRT3) in a BioTek Synergy H1 microplate reader at λex = 320 nm and λem = 408 nm (gain = 130 and read height = 7 mm). Initial rates of product formation were determined by a linear regression of the plot of fluorescence intensity vs. time and normalized relative to 0% (max inhibitor) and 100% (no inhibitor) controls. The assay was repeated to determine the IC50 values of all BuK peptides for SIRT2. IC50 values were determined by nonlinear regression of the plot of the normalized initial rate vs. inhibitor concentration using GraphPad Prism. The determined IC50 values are provided in Supplementary Table 2, and inhibition curves can be seen in Supplementary Fig. 20.

Experiment [1] deals with T2, SIRT2 (Homo sapiens, UniProt Q8IXJ6).
T2 sequence (Q8IXJ6 1-389): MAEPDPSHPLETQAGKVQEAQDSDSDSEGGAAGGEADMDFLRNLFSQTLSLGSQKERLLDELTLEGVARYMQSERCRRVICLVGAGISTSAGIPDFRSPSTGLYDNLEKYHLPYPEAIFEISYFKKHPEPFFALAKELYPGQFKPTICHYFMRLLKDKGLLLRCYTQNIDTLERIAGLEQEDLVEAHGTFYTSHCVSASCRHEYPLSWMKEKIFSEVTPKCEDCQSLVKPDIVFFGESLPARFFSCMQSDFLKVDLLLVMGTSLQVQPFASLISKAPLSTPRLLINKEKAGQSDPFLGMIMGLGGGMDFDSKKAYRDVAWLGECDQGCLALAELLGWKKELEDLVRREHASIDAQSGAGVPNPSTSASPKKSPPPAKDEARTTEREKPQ
The experiment is described as follows: Continuous fluorogenic sirtuin inhibition assay, SIRT2 (tBuK peptides, TB). The protocol: as §1

For another experiment, the target named is T3, SIRT3 (Homo sapiens, UniProt Q9NTG7).
T3 sequence (Q9NTG7 1-399): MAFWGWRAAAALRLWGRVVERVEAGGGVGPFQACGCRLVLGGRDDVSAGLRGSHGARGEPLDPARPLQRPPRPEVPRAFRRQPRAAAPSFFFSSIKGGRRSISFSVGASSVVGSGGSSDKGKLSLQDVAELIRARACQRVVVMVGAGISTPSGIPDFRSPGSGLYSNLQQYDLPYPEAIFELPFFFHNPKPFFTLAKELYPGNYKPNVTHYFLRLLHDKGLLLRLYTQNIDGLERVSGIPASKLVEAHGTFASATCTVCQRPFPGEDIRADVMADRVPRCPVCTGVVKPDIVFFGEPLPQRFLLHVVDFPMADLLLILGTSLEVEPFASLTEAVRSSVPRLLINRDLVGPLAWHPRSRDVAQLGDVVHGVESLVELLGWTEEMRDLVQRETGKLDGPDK
The experiment is described as follows: Continuous fluorogenic sirtuin inhibition assay, SIRT3. The protocol: as §1

For experiment [2], the target named is T2, SIRT2. The experiment is described as follows: SIRT2 inhibition assay for thiomyristoyl peptides. The protocol: Assays were performed in 40-µL volumes at 37 °C in black, 384-well plates. […] Following incubation, the reaction started with the addition of the fluorogenic substrate (5 µM), and product formation was monitored by measuring the fluorescence intensity every 20 s for 5 min (SIRT2) in a BioTek Synergy H1 microplate reader at λex = 320 nm and λem = 408 nm (gain = 130 and read height = 7 mm). Initial rates were determined using the plot of fluorescence vs. time for linear portions of each curve. IC50 values were then determined using GraphPad Prism to fit a nonlinear regression to the normalized rates vs. inhibitor concentration.

[3] abbreviates: mean ± SD of two independent experiments.

What is called IC50 is the concentration at which inhibition is half-maximal. `CCCC(=S)NCCCC[C@H](NC(=O)OCc1ccccc1)C(=O)Nc1ccccc1` [TB, reference compound]: the remaining activity at 0.5 µM amounted to 98.9% on SIRT1 (inhibitor 0.5 µM, read-out: Normalized Activity, SIRT1); 112% on SIRT2 [1] (inhibitor 0.5 µM, read-out: Normalized Activity, SIRT2); 90.6% on SIRT3 (inhibitor 0.5 µM, read-out: Normalized Activity, SIRT3). For the same compound, the remaining activity at 1 µM on SIRT1 (inhibitor 1 µM, read-out: Normalized Activity, SIRT1) came to 99%; on SIRT2 [1] (inhibitor 1 µM, read-out: Normalized Activity, SIRT2) it was 80.3%; on SIRT3 (inhibitor 1 µM, read-out: Normalized Activity, SIRT3), 91.2%. Besides, the remaining activity at 4 µM on SIRT1 (inhibitor 4 µM, read-out: Normalized Activity, SIRT1) is 75%; at SIRT2 [1] (inhibitor 4 µM, read-out: Normalized Activity, SIRT2) it was 40.6%; on SIRT3 (inhibitor 4 µM, read-out: Normalized Activity, SIRT3), 93.9%. Moreover, the remaining activity at 10 µM turned out to be 55.9% at SIRT1 (inhibitor 10 µM, read-out: Normalized Activity, SIRT1); 6.05% on SIRT2 [1] (inhibitor 10 µM, read-out: Normalized Activity, SIRT2); 92.4% on SIRT3 (inhibitor 10 µM, read-out: Normalized Activity, SIRT3). The remaining activity at 150 µM was 0% at SIRT1 (inhibitor 150 µM, 100 = Activity w/o inhibitor, 0 = Activity of highest inhibitor, read-out: Normalized Activity, SIRT1) and 0% on SIRT2 [1] (inhibitor 150 µM, 100 = Activity w/o inhibitor, 0 = Activity of highest inhibitor, read-out: Normalized Activity, SIRT2). The IC50 at SIRT1 (setting [3]) was 9.62 ± 0.09 µM; at SIRT2 [1] (0.25 µM SIRT2, 1 mM NAD+, 5 µM fluorogenic substrate, 15 min preincubation, n = 2, read-out: IC50), 3.11 ± 0.045 µM; on SIRT2 [1] (mean ± SD of two independent experiments, read-out: IC50, SIRT2) it was 3.11 ± 0.04 µM; at SIRT3 (setting [3]), > 150 µM. Besides, the activity at 0.5 µM at SIRT2 [1] (inhibitor 0.5 µM, single trials) is 112%. Also, the “%Activity, SIRT2” value at SIRT2 [1] (inhibitor 0.5 µM, single trials, 0.5 µM) is 98.9568%; on SIRT2 [1] (inhibitor 1 µM, single trials, 1 µM), 81.929%; on SIRT2 [1] (inhibitor 4 µM, single trials, 4 µM) it was 42.8707%; on SIRT2 [1] (inhibitor 10 µM, single trials, 10 µM), 11.4809%; at SIRT2 [1] (inhibitor 50 µM, single trials, 50 µM) it was -6.644% and -4.551%; at SIRT2 [1] (inhibitor 100 µM, (Activity/Activity w/o inhibitor)*100, single trials, 100 µM), -5.573% and -9.821%. The activity at 1 µM at SIRT2 [1] (inhibitor 1 µM, single trials) turned out to be 80.3%. For the same compound, the activity at 4 µM at SIRT2 [1] (inhibitor 4 µM, single trials) worked out at 40.6%. Moreover, at SIRT2 [1] (inhibitor 10 µM, single trials), the activity at 10 µM stood at 6.05%. Besides, the “inhibition of SIRT3” value at SIRT3 (0.16–150 µM) is 0 = Activity of highest inhibitor *TB for SIRT3 showed no inhibiton. The remaining activity at 100 µM at SIRT3 (inhibitor 100 µM, read-out: Normalized Activity, SIRT3) amounted to 79.9%.

As to `CCCCCCCCCCCCCC(=S)NCCCC[C@H](NC(=O)OCc1ccccc1)C(=O)Nc1ccccc1` [TM, reference compound], the activity at 0.000488281 µM on SIRT2 [2] (inhibitor 0.488281 nM) came to 101%. The “%Activity, SIRT2” value was 98.9615% at SIRT2 [2] (inhibitor 0.488281 nM, 0.000488281 µM); 83.3212% and 86.8904% and 88.3827% at SIRT2 [2] (inhibitor 0.976562 nM, 0.000976562 µM); 86.75% at SIRT2 [2] (inhibitor 1.95312 nM, 0.00195312 µM); 101.659% and 86.3725% and 107.923% on SIRT2 [2] (inhibitor 3.90625 nM, 0.00390625 µM); 82.8428% and 60.4593% and 105.944% and 110.889% on SIRT2 [2] (inhibitor 7.8125 nM, 0.0078125 µM); 84.6885% at SIRT2 [2] (inhibitor 15.625 nM, 0.015625 µM). The “%Activity, SIRT2” value at SIRT2 [2] (inhibitor 62.5 nM, 0.0625 µM) is 43.9326%; on SIRT2 [2] (inhibitor 125 nM, 0.125 µM) it was 19.1421%; at SIRT2 [2] (inhibitor 250 nM, 0.25 µM) it was 20.6592%; at SIRT2 [2] (inhibitor 500 nM, 0.5 µM), 1.575% and -2.11% and 0.5358%; at SIRT2 [2] (inhibitor 1000 nM, 1 µM), 5.083%. At SIRT2 [2] (inhibitor 0.976562 nM), the activity at 0.000976562 µM was 72.4%. Further, the activity at 0.00195312 µM on SIRT2 [2] (inhibitor 1.95312 nM) was found to be 90.7%. Moreover, the activity at 0.015625 µM at SIRT2 [2] (inhibitor 15.625 nM) amounted to 83.3%. In addition, the activity at 0.0625 µM at SIRT2 [2] (inhibitor 62.5 nM) was determined as 60.2%. Moreover, on SIRT2 [2] (inhibitor 125 nM), the activity at 0.125 µM was 22.5%. Also, the activity at 0.25 µM on SIRT2 [2] (inhibitor 250 nM) was 12.4%. The activity at 1 µM at SIRT2 [2] (inhibitor 1000 nM) was 5.56%.

Take `CCCCCCCCCCCCCC(=S)NCCCC[C@H](NC(=O)[C@@H](NC(=O)[C@@H](NC(=O)[C@H](CS)NC(=O)[C@@H](N)[C@@H](C)O)[C@@H](C)O)C(C)C)C(=O)N[C@H](C(=O)NCC(N)=O)[C@@H](C)CC` [S2P04-tMyK] (H-TCTV[Lys(thiomyristoyl)]IG-NH2): on SIRT2 [2] (10 nM SIRT2, 15 min preincubation, 5 µM substrate, n = 2), the IC50 was determined as 13 ± 4 nM. Moreover, the activity at 0.000466362 µM at SIRT2 [2] (inhibitor 0.466362 nM) was determined as 95.3%. In addition, the “%Activity, SIRT2” value is 104.732% at SIRT2 [2] (inhibitor 0.466362 nM, 0.000466362 µM); 100.382% at SIRT2 [2] (inhibitor 0.932724 nM, 0.000932724 µM); 87.5221% and 108.94% at SIRT2 [2] (inhibitor 1.86545 nM, 0.00186545 µM); 78.4292% and 108.338% at SIRT2 [2] (inhibitor 3.7309 nM, 0.0037309 µM); 66.6253% at SIRT2 [2] (inhibitor 7.4618 nM, 0.0074618 µM); 48.6419% and 27.9749% at SIRT2 [2] (inhibitor 14.9236 nM, 0.0149236 µM). For the same compound, the “%Activity, SIRT2” value on SIRT2 [2] (inhibitor 59.6944 nM, 0.0596944 µM) was 20.9299%; at SIRT2 [2] (inhibitor 955.11 nM, 0.95511 µM), -1.089% and 1.089%. Further, the activity at 0.000932724 µM on SIRT2 [2] (inhibitor 0.932724 nM) came to 97.9%. On SIRT2 [2] (inhibitor 7.4618 nM), the activity at 0.0074618 µM is 77.8%. Moreover, the activity at 0.0596944 µM at SIRT2 [2] (inhibitor 59.6944 nM) turned out to be 11%.
